From patent US20240246935A1 (Plexium, Inc., priority 2021, published 2024) come the findings set out here.

For test [1], the system named is IKZF2 (Helios). The test is described as follows: IKZF2 reporter degradation assay (HEK 293T IKZF2-mNeonGreen reporter cell line). It counts as cell-based, human. Particulars: 1 μM compound, 24 hour incubation, HEK 293T IKZF2-mNeonGreen reporter. An excerpt:
Polycistronic plasmids were constructed for the mammalian expression of fluorescent reporter fusions of human transcription factors IKZF1 (Ikaros), IKZF2 (Helios), and IKZF3 (Aiolos). The respective protein sequences had their C-terminal end joined to a GGGGS linker repeated three times followed by mNeonGreen, P2A sequence, and mScarlet. The DNA sequences of the open reading frames are as follows:
IKZF1, IKZF2, and IKZF3 constructs were cloned into the UCOE Hygromycin expression vectors (Millipore Sigma). Reporter constructs were transfected using cationic lipid reagents into adherent HEK 293T cells and stable integrants were selected by treatment with 200 μg/mL hygromycin B. Clonal populations were obtained from the population of stable integrants either by limiting dilution or fluorescence activated cell sorting.
The clonal stable cell lines were maintained under constant 200 μg/mL hygromycin B selection while being passaged for use in the degradation assays. […] The fluorescence intensity of the IKZF1/2/3-mNeonGreen (FITC channel) and mScarlet (PE channel) reporters were routinely analyzed by flow cytometry to confirm consistent expression levels between experiments.
The IKZF1/IKZF2/IKZF3 degradation assays were carried out by harvesting the HEK 293T reporter cell lines and resuspending the cells in media formulated for reduced background fluorescence (FluoroBrite; Thermo Fisher). The respective cell lines were seeded at a density of 4000 cells/well into black-walled 384-well optical grade assay tissue culture plates. The cells were incubated overnight at 37° C. to allow for attachment to the assay plate. Dilutions of the compounds were prepared in DMSO from 10 mM compound stocks. The assay plates were treated with appropriate concentrations of the compounds by dispensing the DMSO dilutions in quadruplicate wells with an upper limit of 0.5% final DMSO.
After 24 hour incubation with the compounds, the assay plates were imaged on an ImageXpress Pico microscopy system (cells maintained at 37° C. during imaging) to obtain the fluorescent readouts. The assay plates were imaged in the FITC and Tetramethylrhodamine (TRITC) channels to obtain the mNeonGreen fluorescence intensity (reporter degradation data) and mScarlet fluorescence intensity (for cell segmentation). 293T-IKZF1 and 293T-IKZF3 reporter cell lines were imaged with exposures of 500 milliseconds (ms) for both FITC and TRITC channels, while the 293T-IKZF2 reporter cell line was imaged with exposures of 1000 ms for FITC and 1250 ms for TRITC. The resulting data was analyzed with Cell Reporter Xpress software using the 2-channel cell scoring analysis with a “percent positive” readout. The TRITC channel was selected for the “nuclei” segmentation with a threshold of 20 while the FITC channel was selected for the “Marker 1” segmentation and a threshold of 100 for the IKZF1 and IKZF3 reporter lines. […] The minimum segmentation width was set to 6 micrometers and the maximum segmentation width was set to 15 micrometers for all cell lines. The DCs calculations were determined by regression to best fit four-parameter logistic curves using GraphPad Prism.

Test [2] has as its target human E3 ligase component cereblon (CRBN) (Homo sapiens (Human), UniProt Q96SW2). The test is described as follows: Cereblon (CRBN) target engagement, NanoBRET TE Intracellular E3 Ligase Assay in transfected HEK-293T cells. The settings on record: read-out: CRBN Binding EC50. The procedure:
HEK293T cells were harvested ca. 75% confluent with trypsin and plated (500,000 cells/well) in a 6-well tissue culture plate in 2 mL of Dulbecco's Modified Eagle Medium (DMEM)+10% Fetal Bovine Serum (FBS) and incubated overnight at 37° C.
The NanoLuc-CRBN fusion vector (Nluc-CRBN; Promega) contains the coding region of human E3 ligase component cereblon (CRBN) fused to the C-terminus of the NanoLuc luciferase coding region. A mixture of 10 ng Nluc-CRBN and 990 ng DDB1 Expression Vector (Promega) was added to 125 μL Opti-Minimum Essential Medium (Opti-MEM™; Thermo Fisher) along with 2 μL P3000 reagent (Thermo Fisher) in a 1.5 mL epppendorf tube. This solution was added to Lipofectamine 3000 transfection reagent (5 μL; Thermo Fisher) in Opti-MEM (125 μL), mixed well, and incubated for 15 minutes at room temperature. The transfection mixture was added dropwise to cells and incubated overnight at 37° ° C., 5% CO2. Following transfection, cells were washed once with PBS, and trypsin (250 μL) was added and incubated 30-45 sec to dislodge cells. Complete media (2 mL) was added to resuspend cells to form a single cell suspension. Cells were centrifuged at 320×g for 5 min at room temperature, the supernatant was removed, and the cell pellet resuspended in Opti-MEM (3 mL; wash step repeated×2). After final resuspension in 5 mL Opti-MEM, cells were counted and resuspended at 200,000 cells/mL in Opti-MEM.
Cereblon target engagement was monitored by Bioluminescence Resonance Energy Transfer (BRET) in transfected HEK-293T cells using the NanoBRET TE Intracellular E3 Ligase Assay (Promega). Briefly, 384-well plates (white opaque plates, Corning 3574, low binding surface) were seeded with transfected HEK-293T cells (38 μL/well). 2 μL of 10 μM CRBN tracer (diluted 1:5 in Tracer Dilution Buffer) was added to each well. Plates were centrifuged at 320×g for 1 min at room temperature. Test compounds were added in a 11-point dilution series (typically 10 μM to […]) using a TECAN D300e Digital Dispenser. Plates were shaken for 2 minutes on a microplate shaker to mix compounds. Plates were centrifuged at 320×g for 1 min at room temperature, and subsequently incubated for 2 hours at 37° C.
After incubation, plates were allowed to cool to room temperature for 15 minutes. 20 μL of 3× Complete NanoBRET™ Nano-Glo® Substrate plus Inhibitor Solution (Promega, 1:166 Substrate and 1:500 dilution of Extracellular NanoLuc® Inhibitor diluted in Opti-MEM) were added to each well. Plates were incubated with shaking at room temperature for 3 minutes covered with foil. Plates were read on a CLARIOstar microplate reader (BMG LabTech), measuring at 450 nm (donor emission) and 610 nm (acceptor emission). The IC50 values were determined by regression to best fit four-parameter logistic curves using GraphPad Prism.

Chain of human E3 ligase component cereblon (CRBN) (Q96SW2 whole entry): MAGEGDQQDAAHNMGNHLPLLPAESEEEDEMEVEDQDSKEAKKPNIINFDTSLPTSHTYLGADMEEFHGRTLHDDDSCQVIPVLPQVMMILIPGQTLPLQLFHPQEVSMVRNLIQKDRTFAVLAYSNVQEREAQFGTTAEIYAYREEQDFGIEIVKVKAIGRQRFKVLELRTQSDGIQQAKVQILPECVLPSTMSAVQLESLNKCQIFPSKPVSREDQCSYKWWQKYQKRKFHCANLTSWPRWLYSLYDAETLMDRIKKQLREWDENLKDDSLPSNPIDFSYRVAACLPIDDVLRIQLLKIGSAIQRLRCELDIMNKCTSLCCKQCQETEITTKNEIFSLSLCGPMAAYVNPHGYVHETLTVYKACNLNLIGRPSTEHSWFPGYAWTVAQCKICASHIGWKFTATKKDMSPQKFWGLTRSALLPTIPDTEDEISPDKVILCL
Chain of human E3 ligase component cereblon (CRBN) (Q16531 whole entry partner): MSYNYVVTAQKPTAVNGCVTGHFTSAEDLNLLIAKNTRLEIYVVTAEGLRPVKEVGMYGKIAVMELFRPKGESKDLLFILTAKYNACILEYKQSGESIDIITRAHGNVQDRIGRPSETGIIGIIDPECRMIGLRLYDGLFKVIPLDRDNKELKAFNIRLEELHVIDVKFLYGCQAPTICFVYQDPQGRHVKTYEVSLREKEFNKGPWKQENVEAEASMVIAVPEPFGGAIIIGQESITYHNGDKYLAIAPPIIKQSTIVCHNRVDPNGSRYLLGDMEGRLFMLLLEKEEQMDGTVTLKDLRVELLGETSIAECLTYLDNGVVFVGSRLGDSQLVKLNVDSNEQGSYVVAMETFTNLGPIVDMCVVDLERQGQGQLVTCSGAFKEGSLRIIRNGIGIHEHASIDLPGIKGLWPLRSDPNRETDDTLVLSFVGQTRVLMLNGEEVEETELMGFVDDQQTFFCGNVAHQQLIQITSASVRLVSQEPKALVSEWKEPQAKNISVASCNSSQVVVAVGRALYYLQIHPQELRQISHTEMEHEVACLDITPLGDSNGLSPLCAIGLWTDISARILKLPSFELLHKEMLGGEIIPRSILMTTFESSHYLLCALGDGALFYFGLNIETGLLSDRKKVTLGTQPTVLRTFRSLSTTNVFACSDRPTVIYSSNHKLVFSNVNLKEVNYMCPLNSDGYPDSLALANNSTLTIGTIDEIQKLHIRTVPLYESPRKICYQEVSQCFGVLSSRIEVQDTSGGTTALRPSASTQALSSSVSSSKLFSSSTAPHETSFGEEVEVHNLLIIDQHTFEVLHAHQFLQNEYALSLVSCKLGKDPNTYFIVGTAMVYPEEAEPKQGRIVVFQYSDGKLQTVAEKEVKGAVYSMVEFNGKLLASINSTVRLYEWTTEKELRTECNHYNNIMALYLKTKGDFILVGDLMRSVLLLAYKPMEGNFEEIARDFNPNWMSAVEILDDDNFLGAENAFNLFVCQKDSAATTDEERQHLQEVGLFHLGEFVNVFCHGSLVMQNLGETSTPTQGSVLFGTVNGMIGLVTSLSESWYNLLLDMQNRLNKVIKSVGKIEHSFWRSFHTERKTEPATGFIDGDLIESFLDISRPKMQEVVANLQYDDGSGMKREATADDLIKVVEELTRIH

In the case of `N#Cc1cc(F)ccc1C1CN([C@H]2CCCC[C@H]2Oc2ccc3c(c2)CN(C2CCC(=O)NC2=O)C3=O)C1` (stereo partly drawn) [Compound 46, 2-(1-((1S,2R)-2-((2-(2,6-dioxopiperidin-3-yl)-1-oxoisoindolin-5-yl)oxy)cyclohexyl)azetidin-3-yl)-5-fluorobenzonitrile], the “IKZF2 % Degradation @ 1 μM” value in test [1] is on record as less than 15%. Further, the EC50 in test [2] amounted to 22 nM.
The like results for `O=C1CCC(N2Cc3cc(OC4CCCCC4N4CC(c5ccccc5)C4)ccc3C2=O)C(=O)N1` (centres unmarked) [Compound 118, 3-(1-oxo-5-((2-(3-phenylazetidin-1-yl)cyclohexyl)oxy)isoindolin-2-yl)piperidine-2,6-dione] were, in that order, less than 15% and 36 nM.
The matching figures for `O=C1CCC(N2Cc3cc(O[C@H]4CCCC[C@H]4N4CCC4c4ccccc4)ccc3C2=O)C(=O)N1` (stereo partly drawn) [Compound 56, 3-(1-oxo-5-(((1S,2R)-2-(2-phenylazetidin-1-yl)cyclohexyl)oxy)isoindolin-2-yl)piperidine-2,6-dione]: less than 15% and 239 nM.
The like results for `N#Cc1cc(Cl)ccc1C1CN([C@@H]2CCCC[C@@H]2Oc2ccc3c(c2)CN(C2CCC(=O)NC2=O)C3=O)C1` (single isomer, unassigned) [Compound 37] were, in that order, less than 15% and 25 nM.
Take `O=C1CCC(N2Cc3cc(O[C@H]4CCCC[C@@H]4N4CC(c5cccc(OC(F)F)c5)C4)ccc3C2=O)C(=O)N1` (stereo partly drawn) [Compound 80, 3-(5-(((1S,2S)-2-(3-(3-(difluoromethoxy)phenyl)azetidin-1-yl)cyclohexyl)oxy)-1-oxoisoindolin-2-yl)piperidine-2,6-dione]: the “IKZF2 % Degradation @ 1 μM” value in test [1] was 76.7%. Further, the EC50 in test [2] worked out at 8 nM.
The like results for `O=C1CCC(N2Cc3cc(O[C@H]4CCCC[C@@H]4N4CC(c5ccc(C(F)(F)F)cc5)C4)ccc3C2=O)C(=O)N1` (stereo partly drawn) [Compound 58, 3-(1-oxo-5-(((1S,2S)-2-(3-(4-(trifluoromethyl)phenyl)azetidin-1-yl)cyclohexyl)oxy)isoindolin-2-yl)piperidine-2,6-dione] were, in that order, 85.8% and 71 nM.
The matching figures for `O=C1CCC(N2Cc3cc(O[C@H]4CCCC[C@@H]4N4CC(c5cccc(C(F)(F)F)c5)C4)ccc3C2=O)C(=O)N1` (mixture of isomers) [Compound 62, Rac-3-(1-oxo-5-(((trans)-2-(3-(3-(trifluoromethyl)phenyl)azetidin-1-yl)cyclohexyl)oxy)isoindolin-2-yl)piperidine-2,6-dione]: 87.5% and 46 nM.
For `N#Cc1ccc(C2CN([C@H]3CCCC[C@@H]3Oc3ccc4c(c3)CN(C3CCC(=O)NC3=O)C4=O)C2)c(F)c1` (mixture of isomers) [Compound 116, Rac-4-(1-((trans)-2-((2-(2,6-dioxopiperidin-3-yl)-1-oxoisoindolin-5-yl)oxy)cyclohexyl)azetidin-3-yl)-3-fluorobenzonitrile], the “IKZF2 % Degradation @ 1 μM” value in test [1] was less than 15%. In test [2], the EC50 turned out to be 24 nM.
The matching figures for `N#Cc1ccccc1C1CN([C@H]2CCCC[C@H]2Oc2ccc3c(c2)CN(C2CCC(=O)NC2=O)C3=O)C1` (mixture of isomers) [Compound 109, Rac-2-(1-((cis)-2-((2-(2,6-dioxopiperidin-3-yl)-1-oxoisoindolin-5-yl)oxy)cyclohexyl)azetidin-3-yl)benzonitrile]: less than 15% and 37 nM.
For the compound `N#Cc1ccc(C2CN(C3CCCC3Oc3ccc4c(c3)CN(C3CCC(=O)NC3=O)C4=O)C2)cc1F` (centres unmarked) [Compound 110, 4-(1-(2-((2-(2,6-dioxopiperidin-3-yl)-1-oxoisoindolin-5-yl)oxy)cyclopentyl)azetidin-3-yl)-2-fluorobenzonitrile], the “IKZF2 % Degradation @ 1 μM” value in test [1] is 48.8%. Further, the EC50 in test [2] worked out at 19 nM.

What is called EC50 is the midpoint of the concentration-response curve.
